Consider one compound from patent US20150376647A1, “DESIGNER PH SENSOR AS UNIVERSAL TRANSGENE CONTROLLER” (ETH ZURICH, priority 2013, published 2015).

The test has as its system protein kinase A (PKA). Nature of the test: PKA inhibition of pH sensor signaling in pDA62/pCK53-cotransfected HEK-293T. In kind it is cell-based, human. Conditions: 10 μM for 1 h, 2 h at pH 6.9, then pH 7.6, SEAP after 24 h. Here is the method: PKA inhibition: 1.5×10^5 cells were pretreated with 10 μM H-89 (Sigma, cat. no. B1472) for 1 h, incubated for 2 h in cell culture medium adjusted to pH 6.9 and maintained for 24 h in cell culture medium adjusted to pH 7.6 before SEAP levels were assessed in the cell culture supernatant
SEAP: Production of human placental secreted alkaline phosphatase was quantified in cell culture supernatants (Schlatter S. et al., Gene 282, 19-31 (2002)) and mouse serum (Weber et. al., Nat. Biotech., 22, 1440-1444 (2004)) as described before.

With `O=S(=O)(NCCNC/C=C/c1ccc(Br)cc1)c1cccc2cnccc12` [H-89], the “TDAG8-to-PCRE signaling (SEAP levels)” value was “interrupted”.
